O=c1c2ccccc2nc2n1CCc1c-2[nH]c2ccccc12
solubility (mole fraction)
Conditions | 283.2 K | 288.2 K | 293.2 K | 298.2 K | 303.2 K | 313.2 K | 323.2 K
in acetone | 0.000735 | – | 0.000972 | – | 0.00129 | 0.00149 | 0.00196
in chloroform | 0.000287 | – | 0.000511 | – | 0.000922 | 0.00211 | 0.00485
in cyclohexane | 6.24e-06 | – | 1.14e-05 | – | 1.73e-05 | 2.52e-05 | 3.78e-05
in dichloromethane | 0.00142 | 0.00162 | 0.00182 | 0.00196 | 0.00224 | – | –
in diethyl ether | 0.00024 | 0.000273 | 0.000313 | 0.000396 | 0.000454 | – | –
in ethanol | 9.75e-05 | – | 0.000143 | – | 0.000203 | 0.000279 | 0.000394
in ethyl acetate | 0.00104 | – | 0.00123 | – | 0.00153 | 0.00195 | 0.00255
in isopropanol | 7.94e-05 | – | 0.000127 | – | 0.000192 | 0.000292 | 0.000459
in methanol | 6.61e-05 | – | 8.18e-05 | – | 0.000117 | 0.000161 | 0.000229
in n-butanol | 0.000186 | – | 0.000266 | – | 0.000369 | 0.000577 | 0.000955
in n-hexane | 6.17e-06 | – | 1.21e-05 | – | 1.62e-05 | 2.63e-05 | 3.97e-05
in n-pentane | 4.31e-06 | 6.89e-06 | 9.67e-06 | 1.53e-05 | 2.47e-05 | – | –

Reference: BigSolDB 2.1
